From PMC12027948, “Development of Peptidomimetic PROTACs as Potential Degraders of 3-Chymotrypsin-like Protease of SARS-CoV-2” (International Journal of Molecular Sciences, 2025)

Legend:
[1] = target: SARS-CoV-2 3CL^pro (Severe acute respiratory syndrome coronavirus 2, UniProt P0DTD1); assay: cell-based; conditions: HEK293 cells with stable 3CL^pro-flag expression, 72 h treatment, densitometry of Western blot; read-out: Dmax (maximum degradation in percentage)
[2] = Cytotoxicity assay (Cell Counting Kit-8); conditions: human
[3] = system: HEK293 cells; assay: Cytotoxicity assay (Cell Counting Kit-8); conditions: read-out: CC50 (50% cytotoxicity concentration); HEK293, 72 h, CCK8
[4] = HEK293 cells, CC50 (50% cytotoxicity concentration), HEK293, 72 h, CCK8

| Compound | Dmax [1] [%] | CC50 at 3 days [2, 4] [µM] | CC50 [3] [µM] | CC50 at 3 days [2] [µM] |
| --- | --- | --- | --- | --- |
| CC(C)C[C@H](NC(=O)OC(C)(C)C)C(=O)N[C@@H](Cc1ccccc1)C(=O)OCCOCCOCCNc1cccc2c1C(=O)N(C1CCC(=O)NC1=O)C2=O (some centres unmarked) [Compound 16] | 75 | ~25 | 25.8 | – |
| CC(C)C[C@H](NC(=O)[C@H](Cc1ccccc1)NC(=O)OC(C)(C)C)C(=O)NCCCCCCNC(=O)CCC(=O)Nc1cccc2c1CN(C1CCC(=O)NC1=O)C2=O (some centres unmarked) [Compound 19] | – | – | – | 241 |
| CC(C)(C)OC(=O)N[C@H](C(=O)N[C@@H](Cc1ccccc1)C(=O)NCCCCCCNC(=O)CCC(=O)Nc1cccc2c1CN(C1CCC(=O)NC1=O)C2=O)C1CCCCC1 (some centres unmarked) [Compound 18] | – | – | – | 92.2 |
| CC(C)[C@H](NC(=O)[C@@H](NC(=O)OC(C)(C)C)C1CCCCC1)C(=O)OCCOCCNc1cccc2c1C(=O)N(C1CCC(=O)NC1=O)C2=O (some centres unmarked) [Compound 15] | 89.3 | 145 | – | – |
| CC(C)(C)OC(=O)N[C@H](C(=O)N[C@@H](Cc1ccccc1)C(=O)NCCCCNC(=O)CCC(=O)Nc1cccc2c1CN(C1CCC(=O)NC1=O)C2=O)C1CCCCC1 (some centres unmarked) [Compound 17] | – | – | – | 219 |
